From patent US20260028336A1 (Arcus Biosciences, Inc., priority 2022, published 2026)
pEC50, pIC50: −log10 of the molar value.

Columns and labels:
[1] = system: Jurkat cells; assay: IL-2 secretion assay in CD3/CD28-activated Jurkat cells (AlphaLISA); format: cell-based; details: Homo sapiens, CD3/CD28 T Cell Activator, 24 h, IL-2 AlphaLISA
Description: Certain compounds were also evaluated in an IL-2 secretion assay. On the day of the assay, a 16 point, 1:2 master serial dilution of each compound was prepared in Opti-MEM to span a final concentration range of 10 μM to 300 pM. Assays were set up in CORNING® tissue culture-treated 384-well microplates containing 60 nL of each dilution. […] 50,000 cells/well and added to the compound plates. After a short spin (1200 rpm for 1 min), the plates were incubated at 37° C. for 1 hour. The cells were activated by adding 15 μL of IMMUNOCULT™ Human CD3/CD28 T Cell Activator ([…] Technologies) diluted in Opti-MEM. […] The AiphaLISA signal was measured using an EnVision plate reader (PerkinElmer). EC50 values were determined by fitting the data to a standard 4-parameter logistic equation.

[2] = target: T1, Cbl-b (Homo sapiens, UniProt Q13191); assay: Cbl-b probe displacement HTRF binding assay; details: 0.4 nM biotinylated Cbl-b, 150 nM BODIPY probe
T1 construct: biotin (biotinylated)
Description: The affinity with which compounds of the present dislcosure bind to Cbl-b was assessed using probe displacement homologous time resolved fluorescence (HTRF) assays. […] The assays were performed in assay buffer consisting of 20 mM Hepes, 150 mM NaCl, 0.01% Triton X-100, 0.5 mM TCEP, 0.01% BSA. On the day of the assay, a 20 point, 1:2 master serial dilution of each compound was prepared in DMSO to span a final concentration range of […] to 0 nM. Two hundred nanoliters of diluted compound was added to each well of a 384-well plate. Fifteen microliters of biotinylated-Cbl-b resuspended in assay buffer were added to each well and the plate incubated for 60 minutes at room temperature prior to addition of 5 μL of BODIPY™ probe in assay buffer. […] After a further 15 minutes of incubation at room temperature, 5 μl of Streptavidin-Terbium cryptate reagent at 5-fold final concentration was added to each well of the 384-well plate. Binding of a probe to Cbl-b results in an increase of HTRF signal. […] Percentage maximum activity in each test well was calculated based on DMSO (maximum activity, 0% displacement) and no protein control wells (baseline activity, 100% displacement). Binding affinity was determined from a dose response curve fitted using a standard four parameter fit equation.

T1 sequence (Q13191 whole entry, species assumed): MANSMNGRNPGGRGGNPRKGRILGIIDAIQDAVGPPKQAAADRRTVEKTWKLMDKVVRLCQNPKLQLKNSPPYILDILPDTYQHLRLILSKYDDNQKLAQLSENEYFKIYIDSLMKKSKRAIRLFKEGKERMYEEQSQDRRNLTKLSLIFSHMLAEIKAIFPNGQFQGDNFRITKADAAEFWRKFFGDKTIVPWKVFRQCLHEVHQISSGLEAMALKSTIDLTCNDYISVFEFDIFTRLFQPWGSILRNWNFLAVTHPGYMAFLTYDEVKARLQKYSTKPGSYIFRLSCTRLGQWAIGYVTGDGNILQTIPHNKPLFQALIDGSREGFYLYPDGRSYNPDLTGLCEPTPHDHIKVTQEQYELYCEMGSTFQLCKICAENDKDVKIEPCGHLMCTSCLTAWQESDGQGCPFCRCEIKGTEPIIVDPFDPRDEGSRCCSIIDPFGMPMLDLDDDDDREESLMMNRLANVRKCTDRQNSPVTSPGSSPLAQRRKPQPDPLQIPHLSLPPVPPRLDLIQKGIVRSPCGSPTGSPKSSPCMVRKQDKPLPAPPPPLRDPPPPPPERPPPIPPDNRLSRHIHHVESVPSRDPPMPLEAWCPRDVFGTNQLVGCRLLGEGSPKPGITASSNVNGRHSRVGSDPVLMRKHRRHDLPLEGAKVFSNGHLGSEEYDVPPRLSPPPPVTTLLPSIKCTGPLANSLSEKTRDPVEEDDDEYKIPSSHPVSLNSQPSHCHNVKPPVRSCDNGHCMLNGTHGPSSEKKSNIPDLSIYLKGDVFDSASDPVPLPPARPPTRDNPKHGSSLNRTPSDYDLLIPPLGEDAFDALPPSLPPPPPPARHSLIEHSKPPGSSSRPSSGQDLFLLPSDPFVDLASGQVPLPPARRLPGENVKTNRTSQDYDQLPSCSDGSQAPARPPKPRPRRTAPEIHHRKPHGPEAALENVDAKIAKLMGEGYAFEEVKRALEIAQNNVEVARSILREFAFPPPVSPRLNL

Row | pEC50 [1] | pIC50 [2] | Compound
1 | 6.00 to 7.00 | > 7.00 | CC1CC(c2cccc(-n3cc(C4CC4)c4cc(CN5C[C@H]6C[C@@H]5CO6)[nH]c4c3=O)c2)(c2nncn2C)C1 (stereo partly drawn) [Example 51, 4-cyclopropyl-6-{3-[3-methyl-1-(4-methyl-4H-1,2,4-triazol-3-yl)cyclobutyl]phenyl}-2-{[(1R,4R)-2-oxa-5-azabicyclo[2.2.1]heptan-5-yl]methyl}-1H,6H,7H-pyrrolo[2,3-c]pyridin-7-one]
2 | > 7.00 | > 7.00 | CCO[C@H]1C[C@](c2cccc(-n3cc(C4CC4)c4cc(CN5CCC[C@H](C)C5)[nH]c4c3=O)c2)(c2nncn2C)C1 [Example 98, trans-4-cyclopropyl-6-[3-[3-ethoxy-1-(4-methyl-1,2,4-triazol-3-yl)cyclobutyl]phenyl]-2-[[(3S)-3-methylpiperidin-1-yl]methyl]-1H-pyrrolo[2,3-c]pyridin-7-one]
3 | 6.00 to 7.00 | > 7.00 | C[C@H]1CCCN(Cc2cc3c(C4CC4)cn(-c4cccc([C@H](c5nncn5C(F)F)C5CCC5)c4)c(=O)c3[nH]2)C1 [Example 154, 6-(m-{(R)-cyclobutyl[4-(difluoromethyl)-4H-1,2,4-triazol-3-yl]methyl}phenyl)-2-{[(S)-3-methyl-1-piperidyl]methyl}-4-cyclopropyl-1,6-dihydro-1,6-diaza-7-indenone]
4 | 6.00 to 7.00 | > 7.00 | C[C@H]1CCCN(Cc2cc3c(C4CC4)cn(-c4cccc(C5(c6nncn6C6CC6)CC6(CC6)C5)c4)c(=O)c3[nH]2)C1 [Example 144, 4-cyclopropyl-6-[3-[5-(4-cyclopropyl-1,2,4-triazol-3-yl)spiro[2.3]hexan-5-yl]phenyl]-2-[[(3S)-3-methylpiperidin-1-yl]methyl]-1H-pyrrolo[2,3-c]pyridin-7-one]
5 | 6.00 to 7.00 | 6.00 to 7.00 | C[C@H]1CCCN(Cc2cc3c(C4CC4)cn(-c4cccc(C5(c6ncco6)CC(F)(F)C5)c4)c(=O)c3[nH]2)C1 [Example 127, 4-cyclopropyl-6-[3-[3,3-difluoro-1-(1,3-oxazol-2-yl)cyclobutyl]phenyl]-2-[[(3S)-3-methylpiperidin-1-yl]methyl]-1H-pyrrolo[2,3-c]pyridin-7-one]
6 | 5.30 to 6.00 | 6.00 to 7.00 | CC1CC(c2cccc(-n3cc(C4CC4)c4cc(CN5CCN(C)[C@H](C)C5)[nH]c4c3=O)c2)(c2nncn2C)C1 (stereo partly drawn) [Example 61, 4-cyclopropyl-2-{[(3R)-3,4-dimethylpiperazin-1-yl]methyl}-6-{3-[3-methyl-1-(4-methyl-4H-1,2,4-triazol-3-yl)cyclobutyl]phenyl}-1H,6H,7H-pyrrolo[2,3-c]pyridin-7-one]
7 | > 7.00 | – | C[C@H]1CCCN(Cc2cc3c(C4CC4)cn(-c4cccc([C@]5(c6nncn6C)C[C@@H](C)C5)c4)c(=O)c3[nH]2)C1 [Example 3, 4-cyclopropyl-6-[3-[3-methyl-1-(4-methyl-1,2,4-triazol-3-yl)cyclobutyl]phenyl]-2-[[(3S)-3-methylpiperidin-1-yl]methyl]-1H-pyrrolo[2,3-c]pyridin-7-one]
8 | – | 6.00 to 7.00 | CN1CCC(c2cc3c(C4CC4)cn(-c4cccc([C@]5(c6nncn6C)C[C@@H](C)C5)c4)c(=O)c3[nH]2)CC1 [Example 33, 4-cyclopropyl-2-(1-methylpiperidin-4-yl)-6-{3-[(1r,3s)-3-methyl-1-(4-methyl-4H-1,2,4-triazol-3-yl)cyclobutyl]phenyl}-1H,6H,7H-pyrrolo[2,3-c]pyridin-7-one]
9 | – | > 7.00 | CC1CC(c2cccc(-n3cc(C4CC4)c4cc(CN5CCC[C@H](C(F)(F)F)C5)[nH]c4c3=O)c2)(c2nncn2C)C1 (some centres unmarked) [Example 48, 4-cyclopropyl-6-{3-[3-methyl-1-(4-methyl-4H-1,2,4-triazol-3-yl)cyclobutyl]phenyl}-2-{[(3S′)-3-(trifluoromethyl)piperidin-1-yl]methyl}-1H,6H,7H-pyrrolo[2,3-c]pyridin-7-one]
10 | 5.30 to 6.00 | – | C[C@H]1CCCN(Cc2cc3c(C4CC4)cn(-c4cccc([C@]5(c6nncn6C)C[C@H](O)C5)c4)c(=O)c3[nH]2)C1 [Example 99, trans-4-cyclopropyl-6-[3-[3-hydroxy-1-(4-methyl-1,2,4-triazol-3-yl)cyclobutyl]phenyl]-2-[[(3S)-3-methylpiperidin-1-yl]methyl]-1H-pyrrolo[2,3-c]pyridin-7-one]
11 | – | 5.30 to 6.00 | CC1CC(c2cccc(-n3cc(C4CC4)c4cc(-c5cnn(C)c5)[nH]c4c3=O)c2)(c2nncn2C)C1 (mixture of isomers) [Example 32, 4-cyclopropyl-6-{3-[3-methyl-1-(4-methyl-4H-1,2,4-triazol-3-yl)cyclobutyl]phenyl}-2-(1-methyl-1H-pyrazol-4-yl)-1H,6H,7H-pyrrolo[2,3-c]pyridin-7-one]

Second part, the molecule before the results:

Row | Compound | pEC50 [1] | pIC50 [2]
12 | C[C@H]1CCCN(Cc2cc3c(C4CC4)cn(-c4cccc(C5(Cn6cccn6)CC(F)(F)C5)c4)c(=O)c3[nH]2)C1 [Example 124] | 6.00 to 7.00 | 6.00 to 7.00
13 | Cn1cnnc1C1(c2cccc(-n3cc(C4CC4)c4cc(CN[C@H]5COC[C@@H]5O)[nH]c4c3=O)c2)CC(F)(F)C1 [Example 92] | < 5.30 | 6.00 to 7.00
14 | C[C@H]1CCCN(Cc2nc3c(C(F)(F)F)cn(-c4cccc(C5(c6nncn6C)CC(F)(F)C5)c4)c(=O)c3[nH]2)C1 [Example 113, 5-[3-[3,3-difluoro-1-(4-methyl-1,2,4-triazol-3-yl)cyclobutyl]phenyl]-2-[[(3S)-3-methylpiperidin-1-yl]methyl]-7-(trifluoromethyl)-3H-imidazo[4,5-c]pyridin-4-one] | > 7.00 | > 7.00
15 | CC(c1ccnc(-n2cc(C3CC3)c3cc(CN4CCC[C@H](C)C4)[nH]c3c2=O)c1)c1nncn1C (stereo partly drawn) [Example 157, 2—{[(S)-3-methyl-1-piperidyl]methyl}-4-cyclopropyl-6-{4-[1-(4-methyl-4H-1,2,4-triazol-3-yl)ethyl]-2-pyridyl}-1,6-dihydro-1,6-diaza-7-indenone] | – | > 7.00
16 | Cn1cnnc1[C@]1(c2cccc(-n3cc(C4CC4)c4c(C(=O)O)c[nH]c4c3=O)c2)C[C@H](C)C1 (single isomer, unassigned) [Example 19, 4-Cyclopropyl-7-oxo-6-{3-[(1r,3s)-3-methyl-1-(4-methyl-4H-1,2,4-triazol-3-yl)cyclobutyl]phenyl}-1H,6H,7H-pyrrolo[2,3-c]pyridine-3-carboxylic acid] | – | 5.30 to 6.00
17 | CC(O)c1c[nH]c2c(=O)n(-c3cccc([C@]4(c5nncn5C)C[C@H](C)C4)c3)cc(C3CC3)c12 (single isomer, unassigned) [Example 24] | – | 6.00 to 7.00
18 | Cn1cnnc1[C@]1(c2cccc(-n3cc(C4CC4)c4c(S(C)(=O)=O)c[nH]c4c3=O)c2)C[C@H](C)C1 (single isomer, unassigned) [Example 25, 4-Cyclopropyl-3-methanesulfonyl-6-{3-[(1r,3s)-3-methyl-1-(4-methyl-4H-1,2,4-triazol-3-yl)cyclobutyl]phenyl}-1H,6H,7H-pyrrolo[2,3-c]pyridin-7-one] | – | 6.00 to 7.00
19 | Cn1cnnc1[C@]1(c2cccc(-n3ccc4c(C5CC5)c[nH]c4c3=O)c2)C[C@H](C)C1 (single isomer, unassigned) [Example 13, 3-cyclopropyl-6-{3-[(1r,3s)-3-methyl-1-(4-methyl-4H-1,2,4-triazol-3-yl)cyclobutyl]phenyl}-1H,6H,7H-pyrrolo[2,3-c]pyridin-7-one] | – | 6.00 to 7.00
20 | Cn1cnnc1C1(c2cccc(-n3cc(C4CC4)c4cc(CNC5(C)CC(F)(F)C5)[nH]c4c3=O)c2)CC(F)(F)C1 [Example 81, 4-cyclopropyl-6-{3-[3,3-difluoro-1-(4-methyl-4H-1,2,4-triazol-3-yl)cyclobutyl]phenyl}-2-{[(3,3-difluoro-1-methylcyclobutyl)amino]methyl}-1H,6H,7H-pyrrolo[2,3-c]pyridin-7-one] | – | > 7.00
21 | Cn1cnnc1C1(c2cccc(-n3cc(C4CC4)c4cc[nH]c4c3=O)c2)CC2(CC2)C1 [Example 10, 4-cyclopropyl-6-[3-[5-(4-methyl-1,2,4-triazol-3-yl)spiro[2.3]hexan-5-yl]phenyl]-1H-pyrrolo[2,3-c]pyridin-7-one] | – | 6.00 to 7.00
22 | CC1CC(c2cccc(-n3cc(C4CC4)c4ccsc4c3=O)c2)(c2nncn2C)C1 (centres unmarked) [Example 6, 4-cyclopropyl-6-{3-[3-methyl-1-(4-methyl-4H-1,2,4-triazol-3-yl)cyclobutyl]phenyl}-6H,7H-thieno[2,3-c]pyridin-7-one] | – | < 5.30
23 | CC1CC(c2cccc(-n3cc(C(F)(F)F)c4c(S(C)(=O)=O)c[nH]c4c3=O)c2)(c2nncn2C)C1 (mixture of isomers) [Example 139, 3-Methanesulfonyl-6-{3-[(1S,3R)-3-methyl-1-(4-methyl-4H-1,2,4-triazol-3-yl)cyclobutyl]phenyl}-4-(trifluoromethyl)-1H,6H,7H-pyrrolo[2,3-c]pyridin-7-one] | – | > 7.00
